We go through 5 compounds from patent US12012421B2, “Solid forms of [(1S)-1-[(2S,4R,5R)-5-(5-amino-2-oxo-thiazolo[4,5-d]pyrimidin-3-yl)-4-hydroxy-tetrahydrofuran-2-yl]propyl] acetate” (Hoffmann-La Roche Inc., priority 2018, dated 2024).

Where two headings read alike, the source gives them in different places. Bounds are passed on as bounds.

Series [1] is described as follows: Physical stability of solid forms in stability chamber, solid form checked by XRPD. It is filed as physicochemical. The following applies: for Physical stability (solid form by XRPD compared with initial solid form): 40° C./75%-RH, 1 month; for Stability compared with Form Amorphous: comparison in words, accelerated storage 40° C./75%-RH. How it is done:
40 mg compound (I) in different solid forms were stored in a stability chamber with temperature and humidity controlled at 40° C. and 75%-RH, respectively. After 1 month, the samples were analyzed by XRPD to check their solid form and compared with their initial solid form.

Series [2] is described as follows: Apparent solubility study in bio-relevant media. It is filed as physicochemical. The following applies: for Solubility: 25° C.; for Solubility / solubility at 24 h: 24 hours; for solubility at 24 h: 25 °C, thermodynamic from solid; for Apparent solubility compared with Form Amorphous: comparison in words. Here is the method:
Apparent solubility was determined by suspending 5 mg of compound (I) in different bio-relevant media including pH buffers, SGF, FaSSIF, and FeSSIF. The suspensions were equilibrated at 25° C. for 24 hours. The suspensions were then filtered through a 0.22 μm PVDF filter into a 2-mL HPLC vial. The quantitation of the filtrate was conducted by HPLC with reference to a standard solution.

The nature of series [3]: Single dose PK (SDPK) study, oral suspension. It is filed as in vivo, Wistar Han rat. The following applies: for Cmax / Tmax: male, plasma, Wistar Han rat, n = 5; for Cmax: read-out: Cmax of Compound (I) (double prodrug) in plasma; for Tmax: read-out: Tmax of Compound (I) (double prodrug) in plasma. Here is the method:
Five male Wistar Han rats were administered a single oral dose of 100 or 200 mg/kg of compound (I) (either Form A or Form C). Drug was administered as a suspension in 2% klucel, 0.1% polysorbate 80 and 0.1% parabens in water. Samples were taken at various times up to 24 h and plasma was analysed for compound (I) (double prodrug), compound (Ia) (single prodrug) and compound (Ib) (single prodrug) and compound (III) (active Form).

Series [4] is described as follows: Solid form conversion in aqueous compositions. It is filed as physicochemical. Here is the method:
Form A as prepared in Example 10 was suspended in water to form a slurry at room temperature for 2 hours to afford Form B, then the solid was collected by filtration and dried under vacuum. Depending on the solvation status Form B can be a solvate, a hydrate or a polymorph of compound (I).

As to `CC[C@H](OC(C)=O)[C@@H]1C[C@@H](O)[C@H](n2c(=O)sc3cnc(N)nc32)O1` [Form A of compound (I), [(1S)-1-[(2S,4R,5R)-5-(5-amino-2-oxo-thiazolo[4,5-d]pyrimidin-3-yl)-4-hydroxy-tetrahydrofuran-2-yl]propyl] acetate], the “Physical stability (solid form by XRPD compared with initial solid form)” value in series [1] (listed as Example 10, Form A of compound (I)) is on record as “no solid form change”. Moreover, in series [1], the “Stability compared with Form Amorphous” value was “better stability”. Moreover, the Solubility (as a rule, the dissolved amount per volume that the medium holds) was 6330 µg/mL in series [2] (FaSSIF, listed as Example 10, Form A of compound (I)); 7930 µg/mL in series [2] (FeSSIF, listed as Example 10, Form A of compound (I)); over 16360 µg/mL in series [2] (SGF, listed as Example 10, Form A of compound (I)); over 16280 µg/mL in series [2] (pH1 buffer, listed as Example 10, Form A of compound (I)); 12870 µg/mL in series [2] (pH3 buffer, listed as Example 10, Form A of compound (I)); 6390 µg/mL in series [2] (pH5 buffer, listed as Example 10, Form A of compound (I)). Also, the Solubility in series [2] (pH7 buffer, listed as Example 10, Form A of compound (I)) amounted to 6240 µg/mL; in series [2] (pH9 buffer, listed as Example 10, Form A of compound (I)) it was 6380 µg/mL. For the same compound, the “Conversion rate to the single prodrug in vivo” value in series [3] (Form A at 100 mg/kg compared with Form C at 200 mg/kg, in words) is on record as “faster conversion rate”. Further, the Cmax (in general, the maximum level reached in the sampled fluid or tissue) in series [3] (PO 100 mg/kg) came out at 563 ng/mL. Further, the Tmax (as a rule, the time at which the peak concentration occurs) in series [3] (PO 100 mg/kg) was found to be 90 min.
As for `CC[C@H](OC(C)=O)[C@@H]1C[C@@H](O)[C@H](n2c(=O)sc3cnc(N)nc32)O1` [Form Amorphous of compound (I), [(1S)-1-[(2S,4R,5R)-5-(5-amino-2-oxo-thiazolo[4,5-d]pyrimidin-3-yl)-4-hydroxy-tetrahydrofuran-2-yl]propyl] acetate], in series [1] (listed as Example 1, Form Amorphous of compound (I)), the “Physical stability (solid form by XRPD compared with initial solid form)” value is listed as “solid form change”. Moreover, the “Tendency to form change” value in series [1] (general finding in words) is reported as “prone to crystallization”. Besides, the Solubility came out at 6930 µg/mL in series [2] (FaSSIF, listed as Example 1, Form Amorphous of compound (I)); 7350 µg/mL in series [2] (FeSSIF, listed as Example 1, Form Amorphous of compound (I)); 9570 µg/mL in series [2] (pH3 buffer, listed as Example 1, Form Amorphous of compound (I)); 3830 µg/mL in series [2] (pH5 buffer, listed as Example 1, Form Amorphous of compound (I)); 4050 µg/mL in series [2] (pH7 buffer, listed as Example 1, Form Amorphous of compound (I)); 5030 µg/mL in series [2] (pH9 buffer, listed as Example 1, Form Amorphous of compound (I)). In addition, the solubility (in general, the concentration that dissolves in the medium under given conditions) at 24 h was over 10000 µg/mL in series [2] (SGF, simulated gastric fluid) and over 10000 µg/mL in series [2] (pH 1 buffer, pH 1, simulated gastric fluid, pH1 buffer).
Regarding `CC[C@H](OC(C)=O)[C@@H]1C[C@@H](O)[C@H](n2c(=O)sc3cnc(N)nc32)O1` [Form B of compound (I), [(1S)-1-[(2S,4R,5R)-5-(5-amino-2-oxo-thiazolo[4,5-d]pyrimidin-3-yl)-4-hydroxy-tetrahydrofuran-2-yl]propyl] acetate], the “Physical stability (solid form by XRPD compared with initial solid form)” value in series [1] (listed as Example 11, Form B of compound (I)) is “no solid form change”. Also, the “Stability compared with Form Amorphous” value in series [1] was “better stability”. In addition, the Solubility is 3820 µg/mL in series [2] (FaSSIF, listed as Example 11, Form B of compound (I)); 4130 µg/mL in series [2] (FeSSIF, listed as Example 11, Form B of compound (I)); over 10000 µg/mL in series [2] (SGF, listed as Example 11, Form B of compound (I)); over 10000 µg/mL in series [2] (pH1 buffer, listed as Example 11, Form B of compound (I)); 6920 µg/mL in series [2] (pH3 buffer, listed as Example 11, Form B of compound (I)); 3350 µg/mL in series [2] (pH5 buffer, listed as Example 11, Form B of compound (I)). The Solubility in series [2] (pH7 buffer, listed as Example 11, Form B of compound (I)) was 3400 µg/mL; in series [2] (pH9 buffer, listed as Example 11, Form B of compound (I)), 3550 µg/mL. The “Solid form conversion / stability in aqueous environment” value in series [4] is listed as “better stability in aqueous environment”.
Take `CC[C@H](OC(C)=O)[C@@H]1C[C@@H](O)[C@H](n2c(=O)sc3cnc(N)nc32)O1` [Form C of compound (I), [(1S)-1-[(2S,4R,5R)-5-(5-amino-2-oxo-thiazolo[4,5-d]pyrimidin-3-yl)-4-hydroxy-tetrahydrofuran-2-yl]propyl] acetate]: in series [1] (listed as Example 2, Form C of compound (I)), the “Physical stability (solid form by XRPD compared with initial solid form)” value was “no solid form change”. Also, the “Stability compared with Form Amorphous” value in series [1] is “significantly improved stability”; in series [1] (listed as Form C) it was “better stability”. The Solubility is 2190 µg/mL in series [2] (FaSSIF, listed as Example 2, Form C of compound (I)); 2780 µg/mL in series [2] (FeSSIF, listed as Example 2, Form C of compound (I)); over 10000 µg/mL in series [2] (SGF, listed as Example 2, Form C of compound (I)); over 10000 µg/mL in series [2] (pH1 buffer, listed as Example 2, Form C of compound (I)); 4980 µg/mL in series [2] (pH3 buffer, listed as Example 2, Form C of compound (I)); 2240 µg/mL in series [2] (pH5 buffer, listed as Example 2, Form C of compound (I)). Moreover, the Solubility turned out to be 2190 µg/mL in series [2] (pH7 buffer, listed as Example 2, Form C of compound (I)) and 2320 µg/mL in series [2] (pH9 buffer, listed as Example 2, Form C of compound (I)). Moreover, the “Apparent solubility compared with Form Amorphous” value in series [2] was “comparable apparent solubility”. Besides, the Cmax in series [3] (PO 200 mg/kg) was 259 ng/mL. The Tmax in series [3] (PO 200 mg/kg) came to 19.8 min.
For `CC[C@H](OC(C)=O)[C@@H]1C[C@@H](O)[C@H](n2c(=O)sc3cnc(N)nc32)O1` [Form G of compound (I), [(1S)-1-[(2S,4R,5R)-5-(5-amino-2-oxo-thiazolo[4,5-d]pyrimidin-3-yl)-4-hydroxy-tetrahydrofuran-2-yl]propyl] acetate], the “Physical stability (solid form by XRPD compared with initial solid form)” value in series [1] (listed as Example 12, Form G of compound (I)) is on record as “no solid form change”. The “Stability compared with Form Amorphous” value is recorded as “improved stability” in series [1] and “better stability” in series [1] (listed as Form G). Further, the Solubility in series [2] (FaSSIF, listed as Example 12, Form G of compound (I)) is 2490 µg/mL; in series [2] (FeSSIF, listed as Example 12, Form G of compound (I)), 2790 µg/mL; in series [2] (SGF, listed as Example 12, Form G of compound (I)) it was over 10000 µg/mL; in series [2] (pH1 buffer, listed as Example 12, Form G of compound (I)), over 10000 µg/mL; in series [2] (pH3 buffer, listed as Example 12, Form G of compound (I)), 6440 µg/mL; in series [2] (pH5 buffer, listed as Example 12, Form G of compound (I)), 3750 µg/mL. Further, the Solubility in series [2] (pH7 buffer, listed as Example 12, Form G of compound (I)) was found to be 3700 µg/mL; in series [2] (pH9 buffer, listed as Example 12, Form G of compound (I)), 3640 µg/mL. In addition, the “Apparent solubility compared with Form Amorphous” value in series [2] was “comparable apparent solubility”.
